Measured values as given in article PMC8607422, “Development of a novel TLR8 agonist for cancer immunotherapy” (Molecular Biomedicine, 2020).

Key:
[1] = system: EMT6 mouse breast cancer cells; assay: EMT6 mouse syngeneic breast cancer model; type: in vivo; settings: AZD-1775 30 mg/kg po bid
Protocol: All the animal experiments were conducted following Association for Assessment and Accreditation of Laboratory Animal Care (AAALAC)‘s guideline. The animal protocols were approved by the Institutional Animal Care and Use Committee (IACUC). Cell lines were purchased from credible vendors including ATCC. After tumor cell inoculation, the animals were checked daily for morbidity and mortality. At the time of routine monitoring, the animals were checked for any effects of tumor growth and treatment on the animals’ well-being such as mobility, food and water consumption, body weight gain/loss, matting and any other abnormalities. Clinical observations were recorded. Tumor volumes were measured twice a week in two dimensions using a caliper and the volume was expressed in mm^3 using the formula: V = 0.5 a × b^2 where a and b are the long and short diameters of the tumor, respectively. The procedures of dosing as well as tumor and body weight measurement were conducted in a laminar flow cabinet.
For EMT6 experiments, EMT6 mouse breast cancer cells were cultured in vitro as a monolayer culture in RPMI1640 medium supplemented with 10% fetal bovine serum and 1% penicillin/streptomycin at 37°C in an atmosphere of 5% CO2 in air. […] The cells growing in the exponential growth phase were harvested and counted for tumor inoculation. […]

hTLR7 = molecular target: T1, hTLR7 (Homo sapiens, UniProt Q9NYK1); assay: HEK-Blue hTLR7 SEAP reporter agonist assay; type: cell-based; settings: positive control
T1 construct: host or cells: HEK-Blue hTLR7
T1 sequence (Q9NYK1 27-1049): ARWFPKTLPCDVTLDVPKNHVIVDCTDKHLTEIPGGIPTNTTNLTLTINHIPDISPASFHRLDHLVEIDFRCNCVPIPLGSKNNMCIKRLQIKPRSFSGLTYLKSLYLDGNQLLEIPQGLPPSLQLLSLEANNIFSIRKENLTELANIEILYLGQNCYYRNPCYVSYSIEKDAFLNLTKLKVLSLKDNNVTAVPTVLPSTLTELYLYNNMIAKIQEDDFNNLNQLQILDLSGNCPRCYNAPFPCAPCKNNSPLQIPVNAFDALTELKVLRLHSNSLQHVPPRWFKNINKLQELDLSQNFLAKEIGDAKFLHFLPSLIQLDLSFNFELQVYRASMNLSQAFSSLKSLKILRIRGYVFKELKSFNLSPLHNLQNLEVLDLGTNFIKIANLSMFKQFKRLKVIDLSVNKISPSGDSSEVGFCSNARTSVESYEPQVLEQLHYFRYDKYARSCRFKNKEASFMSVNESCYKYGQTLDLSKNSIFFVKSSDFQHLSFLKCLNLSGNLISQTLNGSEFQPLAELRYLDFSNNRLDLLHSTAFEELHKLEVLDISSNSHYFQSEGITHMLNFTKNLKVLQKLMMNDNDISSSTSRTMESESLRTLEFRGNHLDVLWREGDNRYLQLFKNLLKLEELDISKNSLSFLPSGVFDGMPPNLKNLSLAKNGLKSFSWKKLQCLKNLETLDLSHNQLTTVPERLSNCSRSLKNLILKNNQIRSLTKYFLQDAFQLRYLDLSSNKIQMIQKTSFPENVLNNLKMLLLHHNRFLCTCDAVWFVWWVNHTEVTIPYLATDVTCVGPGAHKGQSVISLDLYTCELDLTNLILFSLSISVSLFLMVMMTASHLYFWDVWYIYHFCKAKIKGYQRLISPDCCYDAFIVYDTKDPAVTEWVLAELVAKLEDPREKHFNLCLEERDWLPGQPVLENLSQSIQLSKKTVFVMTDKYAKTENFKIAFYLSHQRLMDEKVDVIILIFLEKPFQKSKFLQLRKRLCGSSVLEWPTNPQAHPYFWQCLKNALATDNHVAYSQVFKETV
Excerpt: HEK-Blue™ hTLR4, 7, 8 and 9 cell lines were purchased from InvivoGen (Hong Kong). The cells express the human TLR gene and NF-κB/AP-1-inducible SEAP (secreted embryonic alkaline phosphatase) reporter gene. SEAP levels produced upon TLR stimulation can be determined by QUANTI-Blue™. In the cell-based assay, the main reagents used were QUANTI-Blue™ (InvivoGen) and ATPlite 1 Step (Perkin Elmer). The main instruments used were the microplate reader SpectraMax 340PC (Molecular Device) and Envision (Perkin Elmer). Motolimod and DN052 were synthesized in house. […] The compounds were in 10 mM stock solution in DMSO and stored at − 20°C. The compounds were serially diluted in the concentration range from 0.5 nM to 15 μM (up to 50 μM in the hTLR4, hTLR7 and hTLR9 assays) and added to 96-well plates. DMSO was used as the negative control. LPS-EK, R848, motolimod and ODN2006 were used as the positive control for TLR4, 7, 8 and 9, respectively. The cells were cultured and treated with the compounds at 37°C, 5%CO2 for 24 h. […] After 1.5 h of incubation, the optical density was measured using the spectrophotometer at 650 nm in the microplate reader of SpectraMax 340PC. The cell viability of each well was determined using ATPlite 1 Step following the manufacturer’s instruction. The luminescence signal in each well of plates was measured in the microplate reader of Envision.

Row | SMILES | response of EMT6 model to single agent [1] | activity of positive control in TLR7 assay (hTLR7)
1 | C=CCn1c(=O)c2cnc(Nc3ccc(N4CCN(C)CC4)cc3)nc2n1-c1cccc(C(C)(C)O)n1 [AZD-1775] | largely resistant | 
2 | CCOCc1nc2c(N)nc3ccccc3c2n1CC(C)(C)O [R848] |  | active
